Results on five substances are retold here after US20240336926A1, “PHARMACEUTICAL COMPOSITION FOR TREATING TRIPLE NEGATIVE BREAST CANCER, CONTAINING NON-NATURAL NUCLEIC ACID LIGAND AS ACTIVE INGREDIENT” (INTEROLIGO CORPORATION, priority 2021, published 2024).

Where two headings read alike, the source gives them in different places. [NapdU] = 5-(N-(1-naphthylmethyl)carboxamide)-2'-deoxyuridine (Nap-dU)

Data set [1] has as its target human serum albumin (HSA) (Homo sapiens, UniProt P02768). The data set can be described thus: ELISA binding affinity (Kd) for 1st target. In general terms: ELISA stands for enzyme-linked immunosorbent assay.
The target of another data set is K-RAS G12D protein (Homo sapiens, UniProt P01116, G12D). The data set can be described thus: ELISA binding affinity (Kd) for 2nd target. The note with it: read-out: Biding affinity for 2nd target Kd, ligands with biotin conjugated to the 5′-end.
Data set [2] is described as follows: Serum half-life in human serum (urea-PAGE band intensity). The note with it: 96% human serum, 37° C.; ligands with biotin conjugated to the 5′-end. The format is in vitro ADME. On the procedure:
The stabilized nucleic acid ligand was added to the 96% human serum and then reacted at 37° C. for 0, 3, 6, 9, 12, 15, and 18 hours, thereby inducing the degradation of the nucleic acid ligand. After each of the reaction times, the nuclease was inactivated by heating at 85° C., and electrophoresis was performed on a 10% urea-polyacrylamide gel. A control without the addition of human serum was included as a loading control, and the band intensities of the control and the test groups were measured. The intensity trend line over time was determined using the measurement values, and the intensity value was inserted into the trend equation to obtain the half-life.

Sequence of human serum albumin (HSA) (P02768 25-609): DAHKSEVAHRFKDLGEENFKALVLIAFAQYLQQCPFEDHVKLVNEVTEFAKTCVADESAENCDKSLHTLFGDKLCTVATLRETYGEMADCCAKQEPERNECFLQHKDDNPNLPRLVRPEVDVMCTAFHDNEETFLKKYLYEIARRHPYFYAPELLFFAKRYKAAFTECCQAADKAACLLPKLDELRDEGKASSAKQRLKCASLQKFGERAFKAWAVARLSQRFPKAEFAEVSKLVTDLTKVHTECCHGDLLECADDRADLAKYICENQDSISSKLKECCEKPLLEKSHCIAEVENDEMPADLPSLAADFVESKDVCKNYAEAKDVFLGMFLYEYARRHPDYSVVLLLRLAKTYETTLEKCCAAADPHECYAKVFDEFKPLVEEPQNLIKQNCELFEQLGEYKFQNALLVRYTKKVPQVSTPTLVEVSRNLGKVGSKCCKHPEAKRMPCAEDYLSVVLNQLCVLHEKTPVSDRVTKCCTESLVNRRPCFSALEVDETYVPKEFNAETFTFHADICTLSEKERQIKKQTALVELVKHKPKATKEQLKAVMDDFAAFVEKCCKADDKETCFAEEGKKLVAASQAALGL
Experimental for K-RAS G12D protein: The binding affinity of the nucleic acid ligands were measured using enzyme linked immunosorbent assay (ELISA).
The test method was composed of the following steps. • 1) A target protein was coated on a microplate at a low temperature for 16 hours. • 2) The surface of the microplate was blocked by reaction at room temperature for 1 hour using Blocking Buffer (Pierce™ Protein-Free (PBS) Blocking Buffer, Thermo Scientific, USA). • 3) The microplate was treated with a nucleic acid ligand, followed by reaction at 37° C. for 1 hour. • 4) For enzyme conjugation, the microplate was treated with a streptavidin-horseradish peroxidase (HRP) conjugate (Thermo Scientific, USA), followed by reaction at room temperature for 1 hour. • 5) The microplate was treated with TMB substrate solution (Thermo Scientific, USA), followed by reaction at room temperature for 30 minutes. • 6) The microplate was treated with a reaction termination solution (2 M sulfuric acid). • 7) The absorbance was measured at 450 nm using GloMax plate meter (Promega, USA).
The target protein and the nucleic acid ligand were each used at 4-fold dilution starting from 500 nM.

As to “AD006: truncated nucleic acid ligand GAC6AGCA6AAG6CCGGA6GGCAGC666A6GCCG, 6 = Nap-dU (DNA GACUAGCAUAAGUCCGGAUGGCAGCUUUAUGCCG; aptamer; DNA, [NapdU] at 4, 9, 13, 19, 26, 27, 28, 30, backbone and methylation of C not given here)”, the Kd (commonly the constant that tells how readily two partners part at equilibrium) in data set [1] is 939 nM; with K-RAS G12D protein, 77.6 nM.

With “AD004: truncated nucleic acid ligand GCCTGGAC6AGCA6AAG6CCGGA6GGCAGC666A6GCCGACCA6CAGCC, 6 = Nap-dU (DNA GCCTGGACUAGCAUAAGUCCGGAUGGCAGCUUUAUGCCGACCAUCAGCC; aptamer; DNA, [NapdU] at 9, 14, 18, 24, 31, 32, 33, 35, 44, backbone and methylation of C not given here)”, the results for the Kd (in data set [1]; with K-RAS G12D protein) were 190 nM and 16.6 nM, respectively.

Consider “AD007: truncated nucleic acid ligand GCA6AAG6CCGGA6GGCAGC666A6GCCGACC, 6 = Nap-dU (DNA GCAUAAGUCCGGAUGGCAGCUUUAUGCCGACC; aptamer; DNA, [NapdU] at 4, 8, 14, 21, 22, 23, 25, backbone and methylation of C not given here)”, for which the results for the Kd (in data set [1]; with K-RAS G12D protein) were 536 nM and 152 nM, respectively.

In the case of “AD008: truncated nucleic acid ligand GCA6AAG6CCGGA6GGCAGC666A6GC, 6 = Nap-dU (DNA GCAUAAGUCCGGAUGGCAGCUUUAUGC; aptamer; DNA, [NapdU] at 4, 8, 14, 21, 22, 23, 25, backbone and methylation of C not given here)”, the Kd stood at 66.9 nM in data set [1] and 287 nM with K-RAS G12D protein.

For “AD005: truncated nucleic acid ligand GAC6AGCA6AAG6CCGGA6GGCAGC666A6GCCGACCA6, 6 = Nap-dU (DNA GACNAGCANAAGNCCGGANGGCAGCNNNANGCCGACCAN; Nap-dU modified bases; modified_base 4 OTHER; 5-(N-(1-naphthylmethyl)carboxamide)-2-deoxyuridine; modified_base 9 OTHER; 5-(N-(1-naphthylmethyl)carboxamide)-2'-deoxyuridine(Nap-dU); modified_base 13 OTHER; modified_base 19 OTHER; modified_base 26..28 OTHER; 5-(N-(1-naphthylmethyl)carboxamide)-2'-deox)”, the Kd in data set [1] (HSA, ELISA, ligands with biotin conjugated to the 5′-end, read-out: Biding affinity for 1st target Kd) was found to be 122 nM; with K-RAS G12D protein, 22.9 nM. In addition, in data set [2], the “Serum half-life t½” value is 30.1 h.
